Results: publication PMC11062894, “Protein-based bandpass filters for controlling cellular signaling with chemical inputs” (Nature Chemical Biology, 2023)
Several values for one entry are separate records, joined by “and”; a condition that tells them apart may be missing. Equal values may be shown once.

System: GEMS receptors with CBPvene (Bcl2–LD3 and Bcl2high variants), STAT3-driven SEAP in HEK293T cells
Experiment: GEMS SEAP reporter assay, CBPvene (Bcl2high, LD3-v and Bcl2-v variants) with venetoclax
Assay type: cell-based
[1] = CBPVene-v5-Bcl2v2, Venetoclax 1000 nM
[2] = CBPVene-v5-Bcl2v2, Venetoclax 3160 nM
[3] = CBPVene-v5-Bcl2v2, Venetoclax 10000 nM
[4] = CBPVene-v5-LD3v1, Venetoclax 1 nM
[5] = CBPVene-v5-LD3v1, Venetoclax 3.16 nM
[6] = CBPVene-v5-LD3v1, Venetoclax 10 nM
[7] = CBPVene-v5-LD3v1, Venetoclax 31.6 nM
[8] = CBPVene-v5-LD3v1, Venetoclax 316 nM
[9] = CBPVene-v5-LD3v1, Venetoclax 1000 nM
[10] = CBPVene-v5-LD3v1, Venetoclax 10000 nM
[11] = Supp Fig 10a, Bcl2-v1, venetoclax 316 nM
[12] = Supp Fig 10a, Bcl2-v1, venetoclax 1000 nM
[13] = Supp Fig 10a, Bcl2-v1, venetoclax 3160 nM
[14] = Supp Fig 10a, Bcl2-v1, venetoclax 10000 nM
[15] = Supp Fig 10a, Bcl2-v2, venetoclax 316 nM
[16] = Supp Fig 10a, Bcl2-v2, venetoclax 1000 nM
[17] = Supp Fig 10a, Bcl2-v2, venetoclax 3160 nM
[18] = Supp Fig 10a, Bcl2-v2, venetoclax 10000 nM
[19] = Supp Fig 10a, Bcl2-v3, venetoclax 316 nM
[20] = Supp Fig 10a, Bcl2-v3, venetoclax 1000 nM
[21] = Supp Fig 10a, Bcl2-v3, venetoclax 3160 nM
[22] = Supp Fig 10a, Bcl2-v3, venetoclax 10000 nM
[23] = Supp Fig 10a, Bcl2-v4, venetoclax 316 nM
[24] = Supp Fig 10a, Bcl2-v4, venetoclax 1000 nM
[25] = Supp Fig 10a, Bcl2-v4, venetoclax 3160 nM
[26] = Supp Fig 10a, Bcl2-v4, venetoclax 10000 nM
[27] = Supp Fig 10a, Bcl2-v5, venetoclax 316 nM
[28] = Supp Fig 10a, Bcl2-v5, venetoclax 1000 nM
[29] = Supp Fig 10a, Bcl2-v5, venetoclax 3160 nM
[30] = Supp Fig 10a, Bcl2-v5, venetoclax 10000 nM
[31] = Supp Fig 10a, Bcl2-v6, venetoclax 316 nM
[32] = Supp Fig 10a, Bcl2-v6, venetoclax 1000 nM
[33] = Supp Fig 10a, Bcl2-v6, venetoclax 3160 nM
[34] = Supp Fig 10a, Bcl2-v6, venetoclax 10000 nM
[35] = Supp Fig 10a, Bcl2, venetoclax 316 nM
[36] = Supp Fig 10a, Bcl2, venetoclax 1000 nM
[37] = Supp Fig 10a, Bcl2, venetoclax 3160 nM
[38] = Supp Fig 10a, Bcl2, venetoclax 10000 nM
[39] = Supp Fig 10b, Bcl2-v1, venetoclax 1 nM
[40] = Supp Fig 10b, Bcl2-v1, venetoclax 3.16 nM
[41] = Supp Fig 10b, Bcl2-v1, venetoclax 10 nM
[42] = Supp Fig 10b, Bcl2-v1, venetoclax 31.6 nM
[43] = Supp Fig 10b, Bcl2-v1, venetoclax 100 nM
[44] = Supp Fig 10b, Bcl2-v1, venetoclax 316 nM
[45] = Supp Fig 10b, Bcl2-v1, venetoclax 1000 nM
[46] = Supp Fig 10b, Bcl2-v1, venetoclax 3160 nM
[47] = Supp Fig 10b, Bcl2-v1, venetoclax 10000 nM
[48] = Supp Fig 10b, Bcl2-v2, venetoclax 1 nM
[49] = Supp Fig 10b, Bcl2-v2, venetoclax 3.16 nM
[50] = Supp Fig 10b, Bcl2-v2, venetoclax 10 nM
[51] = Supp Fig 10b, Bcl2-v2, venetoclax 31.6 nM
[52] = Supp Fig 10b, Bcl2-v2, venetoclax 100 nM
[53] = Supp Fig 10b, Bcl2-v2, venetoclax 316 nM
[54] = Supp Fig 10b, Bcl2-v2, venetoclax 1000 nM
[55] = Supp Fig 10b, Bcl2-v3, venetoclax 1 nM
[56] = Supp Fig 10b, Bcl2-v3, venetoclax 3.16 nM
[57] = Supp Fig 10b, Bcl2-v3, venetoclax 10 nM
[58] = Supp Fig 10b, Bcl2-v3, venetoclax 31.6 nM
[59] = Supp Fig 10b, Bcl2-v3, venetoclax 100 nM
[60] = Supp Fig 10b, Bcl2-v3, venetoclax 316 nM
[61] = Supp Fig 10b, Bcl2-v3, venetoclax 1000 nM
[62] = Supp Fig 10b, Bcl2-v3, venetoclax 3160 nM
[63] = Supp Fig 10b, Bcl2-v3, venetoclax 10000 nM
[64] = Supp Fig 10b, Bcl2-v4, venetoclax 1 nM
[65] = Supp Fig 10b, Bcl2-v4, venetoclax 3.16 nM
[66] = Supp Fig 10b, Bcl2-v4, venetoclax 10 nM
[67] = Supp Fig 10b, Bcl2-v4, venetoclax 31.6 nM

Q: Which results are given for CC1(C)CCC(CN2CCN(c3ccc(C(=O)NS(=O)(=O)c4ccc(NCC5CCOCC5)c([N+](=O)[O-])c4)c(Oc4cnc5[nH]ccc5c4)c3)CC2)=C(c2ccc(Cl)cc2)C1 [Venetoclax]?
A: Normalized data Figure 5f [1]: 77.3797 and 77.4841 and 64.4738; Raw data Figure 5f [1]: 141.449 and 149.007 and 144.09; Normalized data Figure 5f [2]: 35.229 and 32.7238 and 23.2546; Raw data Figure 5f [2]: 64.398 and 62.9303 and 51.9708; Normalized data Figure 5f [3]: 15.1423 and 11.3283 and 13.9843; Raw data Figure 5f [3]: 27.6798 and 21.7852 and 31.253; Raw data of Independent repeat of CBPVene-v5 vs CBPVene-v5-LD3v1 (CBPVene-v5-LD3v1, Venetoclax 0.01 nM): 12.511 and 11.9088 and 12.8792; Normalized data Figure 5c [4]: 16.3682 and 15.9533 and 20.5713; Raw data Figure 5c [4]: 17.8707 and 19.0514 and 21.7836; Raw data of Independent repeat of CBPVene-v5 vs CBPVene-v5-LD3v1 [4]: 12.1852 and 11.7838 and 11.0502; Normalized data Figure 5c [5]: 15.1322 and 15.2538 and 18.8062; Raw data Figure 5c [5]: 16.5212 and 18.216 and 19.9144; Raw data of Independent repeat of CBPVene-v5 vs CBPVene-v5-LD3v1 [5]: 10.1265 and 10.196 and 11.563; Normalized data Figure 5c [6]: 22.3408 and 21.0089 and 24.5666; Raw data Figure 5c [6]: 24.3915 and 25.0888 and 26.0143; Raw data of Independent repeat of CBPVene-v5 vs CBPVene-v5-LD3v1 [6]: 13.7645 and 12.6779 and 10.7132; Normalized data Figure 5c [7]: 35.5947 and 28.4669 and 38.0182; Raw data Figure 5c [7]: 38.8619 and 33.9951 and 40.2586; Raw data of Independent repeat of CBPVene-v5 vs CBPVene-v5-LD3v1 [7]: 17.7633 and 18.8924 and 25.5; Raw data of Independent repeat of CBPVene-v5 vs CBPVene-v5-LD3v1 (CBPVene-v5-LD3v1, Venetoclax 100 nM): 38.3822 and 37.0306 and 47.6081; Normalized data Figure 5c [8]: 100; Raw data Figure 5c [8]: 109.179 and 119.42 and 105.893; Raw data of Independent repeat of CBPVene-v5 vs CBPVene-v5-LD3v1 [8]: 60.7806 and 63.7576 and 57.9589; Normalized data Figure 5c [9]: 77.7899 and 68.2523 and 65.7986; Raw data Figure 5c [9]: 84.9301 and 81.5067 and 69.6762; Raw data of Independent repeat of CBPVene-v5 vs CBPVene-v5-LD3v1 [9]: 40.6135 and 38.6218 and 45.893; Raw data of Independent repeat of CBPVene-v5 vs CBPVene-v5-LD3v1 (CBPVene-v5-LD3v1, Venetoclax 3160 nM): 20.9864 and 23.9183 and 23.9906; Normalized data Figure 5c [10]: 10.3166 and 8.27 and 9.621; Raw data Figure 5c [10]: 11.2636 and 9.876 and 10.1879; SEAP (U/L) (Figure 4h, Venetoclax 1 nM, representative data and independent repeats 1, 2 (triplicates)): 40.3558 U/L and 36.3798 U/L and 44.7796 U/L and 29.5956 U/L and 26.0853 U/L and 29.9849 U/L; SEAP [11]: 16.9918; SEAP normalized (max=100) [11]: 72.9686; SEAP [12]: 11.8168; SEAP normalized (max=100) [12]: 50.7451; SEAP [13]: 18.4889; SEAP normalized (max=100) [13]: 79.3975; SEAP [14]: 5.997; SEAP normalized (max=100) [14]: 25.7548; SEAP [15]: 33.4045; SEAP normalized (max=100) [15]: 100; SEAP [16]: 18.2725; SEAP normalized (max=100) [16]: 54.7009; SEAP [17]: 17.6043; SEAP normalized (max=100) [17]: 52.7004; SEAP [18]: 8.798; SEAP normalized (max=100) [18]: 26.337; SEAP [19]: 24.8752; SEAP normalized (max=100) [19]: 70.756; SEAP [20]: 15.674; SEAP normalized (max=100) [20]: 44.5837; SEAP [21]: 8.48; SEAP normalized (max=100) [21]: 24.1195; SEAP [22]: 5.027; SEAP normalized (max=100) [22]: 14.2997; SEAP [23]: 20.3221; SEAP normalized (max=100) [23]: 44.5121; SEAP [24]: 12.5122; SEAP normalized (max=100) [24]: 27.4059; SEAP [25]: 8.91; SEAP normalized (max=100) [25]: 19.5153; SEAP [26]: 6.178; SEAP normalized (max=100) [26]: 13.5319; SEAP [27]: 16.3938; SEAP normalized (max=100) [27]: 41.8642; SEAP [28]: 8.859; SEAP normalized (max=100) [28]: 22.6219; SEAP [29]: 8.087; SEAP normalized (max=100) [29]: 20.652; SEAP [30]: 5.778; SEAP normalized (max=100) [30]: 14.7539; SEAP [31]: 25.9953; SEAP normalized (max=100) [31]: 62.1077; SEAP [32]: 19.2478; SEAP normalized (max=100) [32]: 45.9867; SEAP [33]: 13.59; SEAP normalized (max=100) [33]: 32.4691; SEAP [34]: 7.797; SEAP normalized (max=100) [34]: 18.6277; SEAP [35]: 206.027; SEAP normalized (max=100) [35]: 100; SEAP [36]: 118.152; SEAP normalized (max=100) [36]: 57.3479; SEAP [37]: 9.9385; SEAP normalized (max=100) [37]: 4.824; SEAP [38]: 6.696; SEAP normalized (max=100) [38]: 3.25; SEAP [39]: 44.2279; SEAP normalized (max=100) [39]: 81.6306; SEAP [40]: 50.6217; SEAP normalized (max=100) [40]: 93.4314; SEAP [41]: 46.5279; SEAP normalized (max=100) [41]: 85.8756; SEAP [42]: 52.0969; SEAP normalized (max=100) [42]: 96.1542; SEAP [43]: 54.1806; SEAP normalized (max=100) [43]: 100; SEAP [44]: 42.1946; SEAP normalized (max=100) [44]: 77.8778; SEAP [45]: 16.2179; SEAP normalized (max=100) [45]: 29.933; SEAP [46]: 5.677; SEAP normalized (max=100) [46]: 10.4785; SEAP [47]: 3.434; SEAP normalized (max=100) [47]: 6.3381; SEAP [48]: 36.2682; SEAP normalized (max=100) [48]: 14.0118; SEAP [49]: 38.2081; SEAP normalized (max=100) [49]: 14.7612; SEAP [50]: 49.7513; SEAP normalized (max=100) [50]: 19.2208; SEAP [51]: 115.969; SEAP normalized (max=100) [51]: 44.8031; SEAP [52]: 258.841; SEAP normalized (max=100) [52]: 100; SEAP [53]: 180.703; SEAP normalized (max=100) [53]: 69.8126; SEAP [54]: 50.1494; SEAP normalized (max=100) [54]: 19.3746; SEAP [55]: 40.7727; SEAP normalized (max=100) [55]: 77.7639; SEAP [56]: 41.3533; SEAP normalized (max=100) [56]: 78.8713; SEAP [57]: 40.3779; SEAP normalized (max=100) [57]: 77.0109; SEAP [58]: 52.4314; SEAP normalized (max=100) [58]: 100; SEAP [59]: 43.8328; SEAP normalized (max=100) [59]: 83.6002; SEAP [60]: 28.8093; SEAP normalized (max=100) [60]: 54.9466; SEAP [61]: 14.8804; SEAP normalized (max=100) [61]: 28.3807; SEAP [62]: 13.0836; SEAP normalized (max=100) [62]: 24.9537; SEAP [63]: 6.8; SEAP normalized (max=100) [63]: 12.9702; SEAP [64]: 29.6608; SEAP normalized (max=100) [64]: 89.6354; SEAP [65]: 26.3749; SEAP normalized (max=100) [65]: 79.7051; SEAP [66]: 26.5882; SEAP normalized (max=100) [66]: 80.3497; SEAP [67]: 28.0379; SEAP normalized (max=100) [67]: 84.7308; SEAP (Supp Fig 10b, Bcl2-v4, venetoclax 100 nM): 26.0079
